Data from paper PMC7284133, “Identification and analysis of novel small molecule inhibitors of RNase E: Implications for antibacterial targeting and regulation of RNase E” (Biochemistry and Biophysics Reports, 2020).

Assays:
[1] = biological target: T1, RNase E (Escherichia coli, UniProt P21513); assay: FRET-based real-time RNA cleavage assay; also discontinuous PAGE assay; format: biochemical
T1 construct: gene rne; N-terminal domain (aa 1–529), N-terminally His10-tagged

[2] = biological target: T2, RNase E (Acinetobacter baumannii, UniProt A0ABX6CBI2); assay: biochemical
T2 construct: gene rne; N-terminal domain (aa 1–544), N-terminally His10-tagged

T1 sequence (P21513 1-529): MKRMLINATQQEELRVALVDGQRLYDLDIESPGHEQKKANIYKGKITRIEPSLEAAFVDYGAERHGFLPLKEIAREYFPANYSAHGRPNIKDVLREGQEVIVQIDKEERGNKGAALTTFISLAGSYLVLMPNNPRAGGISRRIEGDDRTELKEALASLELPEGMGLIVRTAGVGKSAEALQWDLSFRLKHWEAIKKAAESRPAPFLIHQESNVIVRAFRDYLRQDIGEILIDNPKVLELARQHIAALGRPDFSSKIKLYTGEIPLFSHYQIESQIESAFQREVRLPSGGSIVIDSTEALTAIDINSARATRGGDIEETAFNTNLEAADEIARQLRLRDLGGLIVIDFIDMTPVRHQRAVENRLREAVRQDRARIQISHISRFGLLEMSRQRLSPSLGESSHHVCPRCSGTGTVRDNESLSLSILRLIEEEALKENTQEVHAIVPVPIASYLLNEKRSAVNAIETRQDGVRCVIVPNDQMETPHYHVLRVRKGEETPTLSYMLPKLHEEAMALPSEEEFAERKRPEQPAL

SMILES	IC50 [1] [µM]	inhibition at 2000 µM [2] [%]
CC1=NNC(=O)C1CCC(=O)O (stereo not shown) [5′S1]	2500	~60
CC(C)c1c(O)nc(SCCC(=O)O)[nH]c1=O [AS2]	1900	
N[C@@H]1[C@@H](O)[C@H](O)[C@@H](COP(=O)(O)O)O[C@@H]1O [AS4, glucosamine-6-phosphate]	2100	
